{
  "source": "paper PMC8899577",
  "about": "“Targeting the anti-apoptotic Bcl-2 family proteins: machine learning virtual screening and biological evaluation of new small molecules” (Theranostics, 2022)",
  "key": {"MDA-MB-231 cells": {"test_system": "MDA-MB-231 cells", "experiment": "Flow cytometry subG1 peak (PI staining), MDA-MB-231", "format": "cell-based, Human", "details": "20 µM for 72 h", "procedure": "Flow cytometric analysis (BD Accuri™ C6, BD Biosciences) was performed to evaluate cell cycle distribution by propidium iodide (PI) staining, and cell viability by using the PI dye exclusion assay as previously reported.\nFigure 5 Analysis of apoptosis induction by IS20 and IS21 in leukemia, melanoma and NSCLC cells. […] (A-F) Reported images are representative of two independent experiments with similar results. HSP72/73 or α-Tubulin are shown as loading and transferring control. (G) Flow cytometric quantification of cells in the subG1 peak of cell cycle distribution by propidium iodide staining in HL60 cell line treated with IS20 or IS21 (20 μM for 24 h) and in M14, H1299 and MDA-MB-231 cell lines treated with IS20 or IS21 (20 μM for 72 h). Data are reported as mean ± SD of three independent experiments. p-values were calculated between control (Ctrl) and treated cells, * p < 0.05. (H) Flow cytometric quantification of cells in the subG1 peak by propidium iodide staining in M14 and H1299 cell lines treated with IS20 or IS21 (20 μM, 72 h) in presence or absence of the pan caspase inhibitor z-VAD (50 μM). p-values were calculated between treated control (Ctrl) cells, # p < 0.01, ## p < 0.001 or between cells treated with IS20 or IS21 alone or in combination with z-VAD, * p < 0.05, ** p < 0.005. (G-H) Data are reported as mean of two (H) or three (G) experiments ± SD."}, "[1]": {"test_system": "HCT116 colon cancer cells", "experiment": "Cell viability by MTT, HCT116", "format": "cell-based, Human", "details": "20 µM for 72 h, vs control", "procedure": "(§1) The effect of compounds on cell viability was performed by measuring 3-[4,5-dimethylthiazol-2-yl]-2,5-diphenyltetrazolium bromide inner salt (MTT, Sigma-Aldrich) dye absorbance (solid tumor cells) or by quantization of ATP present in metabolically active cells using CellTiter-Glo® Luminescent (Promega, Fitchburg, Wisconsin, USA) (hematologic cells) following manifacturer's protocol. To evaluate the cell colony-forming ability, cell suspension from different samples was seeded into 60-mm Petri dishes. After 10 days, colonies were stained with 2% methylene blue in 95% ethanol and counted (1 colony > 50 cells). The surviving fractions were calculated as the ratio of absolute survival of the treated sample/survival of DMSO-treated control sample.\nFigure 4 Analysis of the effect of IS20 and IS21 on cell viability, clonogenic ability and tumor sphere formation in cancer cells. […] (B) Representative images and quantification of clonogenic ability evaluated in M14 and H1299 cells treated with IS20 or IS21 (20 μM for 72 h). […] (C) Quantification of tumor sphere formation of M14 and H1299 cells treated with IS20 or IS21 (20 μM for 72 h). […] (A-C) Data are reported as mean ± SD of three independent experiments. p-values were calculated between control (Ctrl) and treated cells, ** p < 0.001 and *** p < 0.0001."}, "M14 cells": {"test_system": "M14 cells", "experiment": "Tumor sphere formation assay, M14", "format": "cell-based, Human", "details": "20 µM for 72 h, respect to controls", "procedure": "(§2) For tumor sphere assay, cells were recovered after treatment, counted and seeded in 24-well ultralow attachment surface plates at a density of 5 × 10^2 cells/well and cultured as previously described. After 10 days, spheres were photographed and counted. The percentage of spheres normalized to the number of seeded cells was calculated.\n(§3) Figure 4 Analysis of the effect of IS20 and IS21 on cell viability, clonogenic ability and tumor sphere formation in cancer cells. (A) Analysis of cell viability by MTT assay in M14, H1299, HCT116 and MDA-MB-231 cell lines treated with IS20 or IS21 (20 μM for 72 h). The results are reported as “viability of treated cells/viability of control cells (Ctrl)” × 100. (B) Representative images and quantification of clonogenic ability evaluated in M14 and H1299 cells treated with IS20 or IS21 (20 μM for 72 h). Results are reported as percentage of clonogenicity of treated versus control cells. (C) Quantification of tumor sphere formation of M14 and H1299 cells treated with IS20 or IS21 (20 μM for 72 h). Results are reported as percentage of tumor sphere formation of treated versus control. (A-C) Data are reported as mean ± SD of three independent experiments. p-values were calculated between control (Ctrl) and treated cells, ** p < 0.001 and *** p < 0.0001."}, "H1299 cells": {"test_system": "H1299 cells", "experiment": "Tumor sphere formation assay, H1299", "format": "cell-based, Human", "details": "20 µM for 72 h, respect to controls", "procedure": "as §2, §3"}, "M14 melanoma cells": {"test_system": "M14 melanoma cells", "experiment": "Cell viability by MTT, M14", "format": "cell-based, Human", "details": "for cell viability M14: 20 µM for 72 h, vs control; for IC50: Homo sapiens, M14, 72 h, MTT", "procedure": "as §1\nFigure 1 Cytotoxic screening of putative inhibitors of Bcl-2 anti-apoptotic proteins. (A) Flow cytometric quantification of propidium iodide exclusion assay in HL60 cells treated with the 49 putative Bcl-2 family inhibitors (50 μM, 72 h). (B) Analysis of cell viability by CellTiterGlo assay in HL60 cells treated for 24 h with concentrations ranging from 5 to 50 μM of the indicated compounds. (C-D) Analysis of cell viability by MTT assay in (C) M14 and (D) Sbcl2 melanoma cell lines treated for 72 h with concentrations ranging from 5 to 50 μM of the indicated compounds. (A-D) The results are reported as “viability of treated cells/viability of control cells (Ctrl)” × 100. Data are reported as mean of two (HL60) or three (M14 and Sbcl2) experiments ± SEM.\nas §3"}, "A375 melanoma xenografts": {"test_system": "A375 melanoma xenografts", "experiment": "In vivo tumor growth, A375 xenografts", "details": "i.p. 100 mg/kg, 5 days/week", "procedure": "All procedures involving mice and their care were authorized and certified by the decree no. 67/97A of the Italian Minister of Health and protocol 2560/97 of the Rome Health Service Unit (ASL RMB). Regina Elena National Cancer Institute approved all the procedures involving animals. 5 x 10^6 U937 (in 50% Matrigel, Corning, NY, USA) or A375 cells were subcutaneously injected in the right flank of 6-8-week-old female immunodeficient athymic CD1 nude mice. IS21 was dissolved in 10% DMSO, 30% PEG400 and 60% NaCl (vehicle). Intraperitoneal treatment of vehicle or IS21 (8 mice for each group) every 24 h started when tumors reached the palpability (6 days for U937 and 7 days for A375 cells). […] Animals were observed daily, weighted two times/week and tumor volume (mm^3) calculated as length × width^2 × π/6. At the end of the treatment the tumors were collected and weighed.\nIn particular, mice injected with A375 melanoma cells were treated with vehicle or with IS21 (100 mg/kg, 5 days/week) for three weeks.\nExperiments were repeated\n426 twice. 4 animals/group. * p < 0.01, ** p < 0.001, *** p < 0.0001. (B) Representative images of\n427 explanted tumors of two independent experiments. The scale bar represents 1 cm. (C) Analysis of\n(D) Anal ysis of mice weight after the in vivo ex periment perform ed\n430 as reported in (A). ( A,C, D) D ata are report ed as mean ± SD of two indep endent ex periments. […]"}},
  "data": [
    {"smiles": "CCCCOc1ccc(C2/C(=C(\\O)c3ccc4c(c3)CC(C)O4)C(=O)C(=O)N2c2nnc(SCc3ccc(Cl)cc3)s2)cc1OCC", "note": "(stereo not drawn) [IS20]", "values": [
      {"measurement": "subG1 peak of cell cycle distribution, MDA-MB-231", "setting": "MDA-MB-231 cells", "result": "not evident"},
      {"measurement": "cell viability HCT116", "setting": "[1]", "result": "not significantly perturbed"},
      {"measurement": "decrease of sphere formation capacity, M14", "setting": "M14 cells", "result": "about 60%"},
      {"measurement": "decrease of sphere formation capacity, H1299", "setting": "H1299 cells", "result": "about 60%"},
      {"measurement": "cell viability M14", "setting": "M14 melanoma cells", "result": "significant inhibition"},
      {"measurement": "IC50", "setting": "M14 melanoma cells", "result": 19.8, "unit": "µM"}
    ]},
    {"smiles": "CCCCCOc1ccc(C2/C(=C(\\O)c3ccc4c(c3)CC(C)O4)C(=O)C(=O)N2c2nnc(SCc3ccc(Cl)cc3)s2)cc1OCC", "note": "(stereo not drawn) [IS21]", "values": [
      {"measurement": "subG1 peak of cell cycle distribution, MDA-MB-231", "setting": "MDA-MB-231 cells", "result": "not evident"},
      {"measurement": "day after cell injection from which A375 tumor growth is reduced", "setting": "A375 melanoma xenografts; three weeks", "result": 22, "unit": "days"},
      {"measurement": "in vivo tumor growth of A375", "setting": "A375 melanoma xenografts; three weeks", "result": "strongly reduced"},
      {"measurement": "tolerability of treatment (weight loss, diet consumption, postural and behavioral changes)", "setting": "A375 melanoma xenografts; tumor-bearing nude mice", "result": "highly tolerated"},
      {"measurement": "cell viability HCT116", "setting": "[1]", "result": "not significantly perturbed"},
      {"measurement": "decrease of sphere formation capacity, M14", "setting": "M14 cells", "result": "about 60%"},
      {"measurement": "decrease of sphere formation capacity, H1299", "setting": "H1299 cells", "result": "about 60%"},
      {"measurement": "cell viability M14", "setting": "M14 melanoma cells", "result": "significant inhibition"},
      {"measurement": "IC50", "setting": "M14 melanoma cells", "result": 16.7, "unit": "µM"}
    ]}
  ]
}
